Measurements from US20230339896A1, “HPK1 INHIBITORS AND USES THEREOF” (QILU REGOR THERAPEUTICS INC., priority 2020, published 2023).
Values after ≈ are worked out from the molar mass of the structure shown.

Columns and labels:
[1] = MDCK permeability assay; assay type: in vitro ADME; settings: dog, MDCK, pH 7.4
Protocol: This assay is for generating screening data only, and to estimate the intestinal absorption potential of drug candidates. The study will be conducted in accordance with International Bioethical Standards “World MedicalAssociation Declaration of Helsinki.
Cell line: • ▪ MDCK (ATCC), or MDCK MDR1 (NKI).
Prepare donor buffer: • For A-to-B direction: • ✔ HBSS buffer with 0.3% DMSO and 5 µM Lucifer Yellow (LY): add 150 µL DMSO and 125 µL LY (2 mM) into 50 mL HBSS buffer (pH 7.4). • ✔ HBSS buffer with 0.1% DMSO and 5 µM Lucifer Yellow (LY): add 50 µL DMSO and 125 µL LY (2 mM) into 50 mL HBSS buffer (pH 7.4). • ✔ HBSS buffer with 5 µM Lucifer Yellow (LY): add 125 µL LY (2 mM) into 50 mL HBSS buffer (pH 7.4). • For B-to-A direction: • ✔ HBSS buffer with 0.3% DMSO: add 150 µL DMSO into 50 mL HBSS buffer (pH 7.4). • ✔ HBSS buffer with 0.1% DMSO: add 50 µL DMSO into 50 mL HBSS buffer (pH 7.4). • ✔ HBSS buffer without DMSO. • Prepare receiver buffer: • For A-to-B direction: Prepare HBSS buffer with 0.4% DMSO: add 200 µL DMSO into 50 mL HBSS buffer (pH 7.4) • For B-to-A direction: Prepare HBSS buffer with 0.4% DMSO and 5 µM LY: add 200 uL DMSO and 125 µL LY (2 mM) into 50 mL HBSS buffer (pH 7.4) • Controls: • Prepare 10 mM stock concentrations of compound in DMSO and Lucifer Yellow in assay buffer using the following formula: • (Actual Weight/Molecular Weight)/mL solvent =10 mM • Reference compound: Erythromycin, Metoprolol, Atenolol
MDCK assay plates are seeded 3-4 days prior to running the assay. 24-well plates are seeded at a cell density of 0.88 × 10^5/well in a 400 µL apical chamber volume (2.2×10^5 /mL) with a 25 mL volume of growth medium to the 24-well basal chamber. Assay plates are generally provided with a growth medium change 24 hours prior to the assay.
MDCK assay plates are rinsed with HBSS+ buffer prior to running the assay. After rinsing, fresh HBSS+ is added to the assay plate in a 400 µL apical chamber volume and a 0.8 mL HBSS+ basal chamber volume. Measure the electrical resistance across the monolayer using the Millicell ERS system ohm meter. (The cells will be used if TEER is higher than 100 ohm*cm^2).
Preparation of the cell plates: • Remove the buffer from the apical side and basolateral side. Add 600 µL of donor solution (for A-to-B) or 500 µL of receiver solution (for B-to-A) to the apical wells based on plate map. • A fresh basolateral plate is prepared by adding 800 µL of receiver solution (for A-to-B) or 900 µL of donor solution (B-to-A) to the well of a new 24-well plate. • Put the apical plate and basolateral plate into 37° C. incubator.
Preparation of analytical plate: • After 5 min, transfer 100 µL of samples from all donors (for both A-to-B and B-to-A) into appropriate wells of a sample plate for D0. And transfer 100 µL of samples from all apical chambers (the donor of A-to-B and receiver of B-to-A) into appropriate wells of a microplate for Lucifer Yellow D0 (D0 LY) • Lay the apical plate to the basolateral plate to start transport process. • At 90 min, separate the apical and basolateral plates and transfer 100 µL of samples from all donors (for both A-to-B and B-to-A) into appropriate wells of a new sample plate for D90, and transfer 200 µL of samples from all receivers into appropriate wells of a sample plate for R90. Transfer 100 µL of samples from all basolateral chambers (receiver of A-to-B and donor of B-to-A) into appropriate wells of a new microplate for Lucifer Yellow R90 (R90 LY). • Determine LY permeability by reading D0 LY and R90 LY at an excitation wavelength of 485 nm and an emission wavelength of 535 nm using a fluorescent plate reader. • Sample preparation: • For receiver solution: 60 µL of sample + 60 µL ACN with IS (200 ng/mL Osalmid) • For donor solution: 6 µL of sample + 54 µL 0.4% DMSO/HBSS + 60 µL ACN with IS (200 ng/mL Osalmid) […]

[2] = Kinetic solubility assay; assay type: physicochemical; settings: pH 7.4, aqueous buffer, kinetic from dmso stock; phosphate buffer pH7.4, 1% DMSO, 1 hour at room temperature
Protocol: This protocol is designed to measure kinetic solubility of test articles in assay buffer. The study will be conducted in accordance with International Bioethical Standards “World Medical Association Declaration of Helsinki.
100 Phosphate Buffer, pH7.4
• 1) Prepare stock solutions for test compounds in DMSO at 10 mM concentration. Dilute the stock solutions into 100 mM phosphate buffer in triplicate in 1.5 ml Eppendorf tubes to a target concentration of 100 µM with a final DMSO concentration of 1%: • 2) 4 µL of 10 mM DMSO stock solution into 396 µL of assay buffer. • 3) Keep the sample tubes shaken (1000 rpm) for 1 hour at room temperature. • 4) Centrifuge sample tubes for 10 min at 12000 rpm (Eppendrof-5424, about 13500 g) to precipitate un-dissolved particles. • 5) Transfer the supernatants to new tubes with different dilutions (undiluted, 10-fold diluted, 100-fold diluted, or other fold diluted). • 6) Add 5 µL of working solution and diluted supernatants to 95 µL ACN (containing IS). Analyze the samples by LC-MS-MS against calibration curve.
A standard calibration curve is prepared in Methanol/H2O (1:1).

Structure (SMILES) | Papp A→B at 90 min [1] | Papp B→A at 90 min [1] | solubility kinetic at 1 h [2]
COc1cc2c(cc1Nc1ncc(Cl)c(N3CC(CC(=O)O)c4ccccc43)n1)CN(C)CC2 (stereo not drawn) [Compound 8, reference compound] | 4.5 ×10⁻⁶ cm/s | 38.5 ×10⁻⁶ cm/s | 62.1 µM (≈ 29.8 µg/mL)
COc1cc2c(cc1Nc1ncc(Cl)c(N3CC(C)(CC(=O)O)c4ccc(F)cc43)n1)CN(C)CC2 (stereo not drawn) [Compound 10, reference compound] | 2.6 ×10⁻⁶ cm/s | 58.9 ×10⁻⁶ cm/s | 56.2 µM (≈ 28.8 µg/mL)
COc1cc2c(cc1Nc1ncc(Cl)c(N3CC(C)(CC(=O)O)c4ccccc43)n1)CN(C)CC2 (stereo not drawn) [Example 1, 2-(1-(5-chloro-2-((6-methoxy-2-methyl-1,2,3,4-tetrahydroisoquinolin-7-yl)amino)pyrimidin-4-yl)-3-methylindolin-3-yl)acetic acid] | 2.2 ×10⁻⁶ cm/s | 47.8 ×10⁻⁶ cm/s | 1.5 µM (≈ 0.741 µg/mL)
COc1cc2c(cc1Nc1ncc(Cl)c(N3CC(C(=O)O)c4ccccc43)n1)CN(C)CC2 (stereo not drawn) [Compound 7, reference compound] | 3.2 ×10⁻⁶ cm/s | 9.4 ×10⁻⁶ cm/s | 7.71 µM (≈ 3.59 µg/mL)
CN1CCc2cc(F)c(Nc3ncc(Cl)c(N4CC(C)(CC(=O)O)c5ccccc54)n3)cc2C1 (stereo not drawn) [Example 4, 2-(1-(5-chloro-2-((6-fluoro-2-methyl-1,2,3,4-tetrahydroisoquinolin-7-yl)amino)pyrimidin-4-yl)-3-methylindolin-3-yl)acetic acid] | 7.7 ×10⁻⁶ cm/s | 41.1 ×10⁻⁶ cm/s | 46.7 µM (≈ 22.5 µg/mL)
